In patent publication US6894073B2, “Use of diterpene compound as a therapeutic agent of inflammation, immune disease or cancer” (Korea Research Institute of Bioscience and Biotechnology, priority 2000, dated 2005):

What was measured:
[1] = test system: Bcl-2; assay: Bcl-2 expression, Western blot, MCF-7 and HT-1080 cells; assay type: cell-based; conditions: 1, 5, 10 μg/ml, 20 ng/ml TNF-α 3 hours
Description: (§1) MCF-7 cells and HT-1080 cells were pretreated for 30 minutes with 1 μg/ml, 5 μg/ml, and 10 μg/ml concentrations of four kinds of kaurane diterpene compounds, respectively. After that, 20 ng/ml concentrations of TNF-α were treated for three hours to induce the expression of cIAP-1 and cIAP-2 proteins. Protein extract was prepared from cultured cells using buffer solution for protein extraction consisting of 50 mM Tris-HCL (pH 7.5), 1% Nonidet P40, 150 mM NaCl, 1 mM EDTA, 1 mM phenylmethyl sulfonyl fluoride, […]. 50 μg of protein extract of the control and compound-treated groups was applied to the SDS-polyacrylamide gel electrophoresis. After transferring the proteins into the polyvinylidene difluoride membrane, the membrane was blocked with 5% skim milk for three hours, and were reacted with antibodies against cIAP-1, cIAP-2, Bcl-2, and Bax proteins (Santa Cruz Biochemicals). The membrane was washed with PBS and was reacted with secondary antibody conjugated with horseradish peroxidase. After washing again with PBS, the protein was detected by ECL system (Amersham Pharmacia Biotec).

[2] = test system: COX-2 mRNA; assay: COX-2 mRNA expression, RT-PCR, LPS-stimulated Raw 264.7 cells; assay type: cell-based, murine
Description: (§2) Raw 264.7 murine macrophage cells were treated simultaneously with 1 μg/ml concentrations of LPS and 0.1 μg/ml, 0.3 μg/ml, 1 μg/ml, and 3 μg/ml concentrations of kamebakaurin and were incubated for 6 hours at 37° C. in a 5% CO2 incubator. After isolation of total RNA, reverse transcriptase-polymerase chain reaction (RT-PCR) was performed using said RNA as a template and primer pairs represented by SEQ. ID NO. 3 and 4 for iNOS gene and primer pairs represented by SEQ. ID NO. 5 and 6 for COX-2.

[3] = test system: TNF-α; assay: Inhibition of TNF-α production in LPS-stimulated Raw 264.7 cells (enzyme immunometric assay); assay type: cell-based, murine; conditions: for TNF-α: 1 μg/ml LPS, 16 hours
Description: To investigate whether kaurane diterpene compounds obtained in Example 1 can inhibit effectively the production of tumor necrosis factor-α (TNF-α), one of the inflammatory mediator, which confers cytotoxic effect and induces the production of prostaglandin and cytokines, the present inventors measured the amount of TNF-α accumulated in the culture medium of LPS-stimulated murine macrophage cells, which were treated with four kaurane diterpene compounds, kamebanin, kamebacetal A, kamebakaurin, or exisanin A.
In detail, Raw 264.7 cells in DMEM medium were seeded to a 96-well plate at a cell density of 1×10^5 cells/well and were incubated for 3 hours at 37° C. in a 5% CO2 incubator. To each well were added 1 μg/ml of LPS and 3 μg/ml, 0.3 μg/ml, and 0.03 μg/ml concentrations of kaurane diterpene compounds of the present invention and was incubated for 16 hours. After collecting supernatant by centrifugation, the amount of TNF-α in the culture medium was quantified by enzyme immunometric assay.

[4] = test system: COX-2 protein; assay: COX-2 protein expression, Western blot, LPS-stimulated Raw 264.7 cells; assay type: cell-based, murine; conditions: 0.1-3 μg/ml, LPS 1 μg/ml, 18 hours
Description: Raw 264.7 murine macrophage cells were treated simultaneously with 1 μg/ml concentrations of LPS and 0.1 μg/ml, 0.3 μg/ml, 1 μg/ml, and 3 μg/ml concentrations of kamebakaurin and were incubated for 18 hours at 37° C. in a 5% CO2 incubator. After preparing total cell lysates from cultured cells using buffer solution for protein extraction of the Example <7-2>, the expression pattern of proteins was assessed by Western blot analysis.

[5] = test system: NF-κB; assay: NF-κB activation, SEAP reporter in LPS-stimulated RAW-NF-AP cells; assay type: cell-based, murine; conditions: Mus musculus
Description: RAW-NF-AP cells, which can be used effectively to detect the NF-κB dependent expression of reporter gene, (Korean Patent Application No. 1999-0006025), were seeded to a 96-well plate at a cell density of 1×10^5 cell/well and were incubated for 3 hours at 37° C. in a 5% CO2 incubator. Thereafter, 1 μg/ml concentration of LPS and 0.03 μg/ml, 0.3 μg/ml, and 3 μg/ml concentrations of kaurane diterpene compounds of the present invention were added to each well and was incubated for 16 hours. After collecting supernatant by centrifugation, the amount of secreted alkaline phosphatase (SEAP) in the culture medium of which expression is regulated by the activation of NF-κB was quantified.

[6] = test system: Bf1-1/A1 mRNA; assay: TNF-α-induced Bf1-1/A1 mRNA expression, Northern blot, MCF-7 and HT-1080 cells; assay type: cell-based; conditions: 1, 5, 10 μg/ml, 20 ng/ml TNF-α 3 hours
Description: MCF-7 cells (ATCC HTB 22, breast cancer cell line) and HT-1080 cells (ATCC CCL 121, fibroblastoma) were pretreated for 30 minutes with 1 μg/ml, 5 μg/ml, and 10 μg/ml concentrations of four kinds of kaurane diterpene compounds. Thereafter, 20 ng/ml concentrations of TNF-α were treated for three hours to induce the expression of Bf1-1/A1 mRNA. After isolating total RNA from the control and compound-treated cells, the expression of Bf1-1/A1 mRNA was measured by Northern blot analysis. To accomplish this, 20 μg of the total RNA was electrophoresed in the 1% agarose gel containing 2.2M concentrations of formaldehyde. After that, RNA was transferred to nylon membrane and fixed using ultraviolet. The nylon membrane was hybridized with ^32P-labeled probe, which was represented by SEQ. ID NO. 2 and specific to the cDNA of Bf1-1/A1 gene. After washing unbound probe with phosphate buffered saline (PBS) containing sodium dodecyl sulfate (SDS), the membrane was exposed to x-ray film.

[7] = test system: Bax; assay: Bax expression, Western blot, MCF-7 and HT-1080 cells; assay type: cell-based; conditions: 1, 5, 10 μg/ml, 20 ng/ml TNF-α 3 hours
Description: as §1

[8] = test system: iNOS mRNA; assay: iNOS mRNA expression, RT-PCR, LPS-stimulated Raw 264.7 cells; assay type: cell-based, murine; conditions: 1 μg/ml, LPS 1 μg/ml, 6 hours
Description: as §2

## C=C1C(=O)[C@@]23[C@H](O)C[C@@H]4C(C)(C)CC[C@H](O)[C@@]4(CO)[C@@H]2CC[C@@H]1[C@H]3O [Kamebakaurin, kamebakaurin]
[1]
  Expression of Bcl-2: not inhibited
[2]; 1 μg/ml
  Expression of COX mRNA: inhibited
[2]; 3 μg/ml, LPS 1 μg/ml, 6 hours
  Expression of COX-2 mRNA: completely suppressed
[3]; 0.03 μg/ml compound
  TNF-α: 1407.0 ± 255.6 pg/mL
[3]; 0.3 μg/ml compound
  TNF-α: 654.4 ± 29.4 pg/mL
[3]; 3 μg/ml compound
  TNF-α: 29.6 ± 5.3 pg/mL
[3]; Mus musculus, RAW264.7, 0.03 μg/ml compound, read-out: Inhibition rate (%) of TNF-α production
  inhibition at 0.03 µg/mL: 15.9%
[3]; Mus musculus, RAW264.7, 0.3 μg/ml compound, read-out: Inhibition rate (%) of TNF-α production
  inhibition at 0.3 µg/mL: 61.3%
[3]; Mus musculus, RAW264.7, 3 μg/ml compound, read-out: Inhibition rate (%) of TNF-α production
  inhibition at 3 µg/mL: 99.2%
[3]; Mus musculus, RAW264.7, LPS-stimulated Raw 264.7 cells
  IC50: 0.53 µM
[4]
  Expression of COX-2 protein: suppressed dose-dependently
[5]; 0.03 μg/ml compound, 1 μg/ml LPS, 16 hours
  inhibition at 0.03 µg/mL: 2.5%
[5]; 0.3 μg/ml compound, 1 μg/ml LPS, 16 hours
  inhibition at 0.3 µg/mL: 33.1%
[5]; 3 μg/ml compound, 1 μg/ml LPS, 16 hours
  inhibition at 3 µg/mL: 96.4%
[5]; RAW-NF-AP cells, LPS
  IC50: 1.11 µM
[6]
  Expression of Bf1-1/A1 mRNA induced by TNF-α: inhibited
[7]
  Expression of Bax: not inhibited
[8]
  Expression of iNOS mRNA: completely suppressed
